We go through 14 compounds from patent US11325899B2, “Benzofurane and benzothiophene derivatives as PGE2 receptor modulators” (IDORSIA PHARMACEUTICALS LTD, priority 2017, dated 2022).

Common to all, as to format: cell-based
In one test the target is T1, PTGER4 (EP4) (Homo sapiens, UniProt P35408).
T1 construct: host or cells: HEK 293 (PathHunter PTGER4 b-arrestin cell line)
The test can be described thus: hEP4 b-arrestin assay (PathHunter HEK 293 PTGER4 b-arrestin cells). To be noted: antagonistic activity, beta-arrestin assay; read-out: hEP4 b-arr IC50. A digest of the protocol:
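β-Arrestin recruitment to EP4 was read as enzyme-fragment-complementation chemiluminescence in stably transfected HEK 293 cells. After 15 min compound preincubation at 37 °C (ranges 10 μM–2 nM or 1 μM–0.2 nM), cells were stimulated 120 min with PGE2 at 20 nM, its EC80. IC50 values were fitted from duplicates, with repeat measurements averaged.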

Another test has as its target T2, EP2 receptor (Homo sapiens, UniProt P43116).
T2 construct: SF295 glioblastoma cells express high endogenous EP2 and no EP4; host or cells: SF295 glioblastoma cells
The test is described as follows: hEP2 cAMP assay (SF295 glioblastoma cells, HTRF cAMP, PGE2 stimulation). To be noted: antagonistic activity. As to the method: (§1) The antagonistic activities of the compounds of formula (I) on the EP2 and EP4 receptors are also determined in accordance with the following experimental method.
(§2) Human tumor cell lines expressing endogenously either EP4 or EP2 are used and cAMP accumulation in cells upon PGE2 stimulation is monitored. SF295 glioblastoma cells express high endogenous EP2 and no EP4, whereas BT549 breast cancer cells, express high endogenous EP4 levels and very low EP2 levels.
(§3) As a detection method for cAMP the HTRF (homogeneous time resolved fluorescence) Cisbio kit (HTRF cAMP dynamic 2 kit 20′000 tests Cisbio Cat. #62AM4PEC) was used, which is based on a competitive immunoassay using a Cryptate-labeled anti-cAMP antibody and d2-labeled cAMP. Native cAMP produced by cells or unlabeled cAMP (for the standard curve) compete with exogenously added d2-labeled cAMP (acceptor) for binding to monoclonal anti-cAMP-Eu3+ Cryptate (donor). A FRET signal (Fluorescence Resonance Energy Transfer) is obtained only if the labeled anti-cAMP antibody binds the d2 labelled cAMP, thus the specific signal (i.e. energy transfer) is inversely proportional to the concentration of cAMP in the standard or sample.
The SF295 cells (NCI/No. 0503170) are detached from culture dishes with a cell dissociation buffer (Invitrogen, 13151-014), and collected in growing medium (GM: RPM1640 (Invitrogen 21875)/10% FCS, 1% Penicilin/streptomycin). Cells are counted washed and resuspended in assay buffer (AB; HBSS, 20 mM HEPES, 0.2% BSA; 2 mM IBMX). 4′000 cells in 5 μl of AB are seeded per well of a small volume 384 well plate (black with flat bottom, Greiner 784076).
Stock solutions of test compounds are made at a concentration of 10 mM in DMSO, and serially diluted in DMSO to concentrations required for inhibition dose response curves (tested concentration range 30 μM-0.4 nM; 30 μM-0.015 nM or 1 μM-0.01 nM).
PGE2 (Cayman 14010, stock solution: 75 μM in DMSO) is used as agonist at 75 nM final concentration, corresponding to EC80.
Two point five microliters of diluted compounds are transferred into the assay plate. Plate is pre-incubated 45 minutes at room temperature. Subsequently, 2.5 microliters of PGE2 (final conc. 75 nM) are transferred into the assay plate. Plate is incubated 30 minutes at room temperature. Five μl of each donor (anti-cAMP cryptate) and acceptor (cAMP-d2) are added and the plate is incubated another hour at room temperature in the dark and then read using a BMG LABTECH PHERAstar reader (Excitation: 337 nm, Emission: 620 and 665 nm).
The obtained Delta F (fluorescence) values (665 nm/620 nM) are converted into % cAMP values using the measurements of the cAMP calibrator provided in the kit. For each compound concentration the percentage of cAMP compared to DMSO control value as average±STDEV (each concentration is measured in duplicate) is calculated.
(§4) IC50 values and curves are generated with XLfit software (IDBS) using Dose-Response One Site model 203. When compounds were measured multiple times, mean values are given.

The target in another test is T3, EP4 receptor (Homo sapiens, UniProt P35408).
T3 construct: BT549 breast cancer cells, express high endogenous EP4 levels and very low EP2 levels; host or cells: BT549 breast cancer cells
T3 sequence (P35408 whole entry): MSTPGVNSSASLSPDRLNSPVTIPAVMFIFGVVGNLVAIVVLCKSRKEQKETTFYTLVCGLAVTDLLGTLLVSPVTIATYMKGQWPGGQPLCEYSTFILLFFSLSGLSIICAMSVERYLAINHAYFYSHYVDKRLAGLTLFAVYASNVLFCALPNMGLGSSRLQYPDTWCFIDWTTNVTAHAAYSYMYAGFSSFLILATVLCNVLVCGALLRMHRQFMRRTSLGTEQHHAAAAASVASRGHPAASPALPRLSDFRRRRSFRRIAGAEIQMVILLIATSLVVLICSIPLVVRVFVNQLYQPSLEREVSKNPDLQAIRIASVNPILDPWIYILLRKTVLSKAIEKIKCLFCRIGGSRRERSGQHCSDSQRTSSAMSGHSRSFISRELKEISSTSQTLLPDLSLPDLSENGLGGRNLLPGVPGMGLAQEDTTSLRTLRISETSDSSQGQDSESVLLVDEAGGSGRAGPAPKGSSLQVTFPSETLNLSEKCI
The test can be described thus: hEP4 cAMP assay (BT549 breast cancer cells, HTRF cAMP, PGE2 stimulation). To be noted: antagonistic activity, PGE2 6 nM (EC80). As to the method:
as §1, §2, §3
The BT549 cells (NCI/No. 0507282) are detached from culture dishes with a cell dissociation buffer (Invitrogen, 13151-014), and collected in growing medium (GM: RPMI1640 (Invitrogen 21875)/10% FCS, 1% Penicilin/streptomycin). Cells are counted washed and resuspended in assay buffer (AB; HBSS, 20 mM HEPES, 0.2% BSA; 2 mM IBMX). 4′000 cells in 5 μl of AB are seeded per well of a small volume 384 well plate (black with flat bottom, Greiner 784076).
Stock solutions of test compounds are made at a concentration of 10 mM in DMSO, and serially diluted in DMSO to concentrations required for inhibition dose response curves (tested concentration range 30 μM-0.4 nM; 30 μM-0.015 nM or 1 uM-0.01 nM).
PGE2 (Cayman 14010, stock solution: 6 μM in DMSO) is used as agonist at 6 nM final concentration, corresponding to EC80.
Two point five microliters of diluted compounds are transferred into the assay plate. Plate is pre-incubated 45 minutes at room temperature. Subsequently, 2.5 microliters of PGE2 (final conc. 6 nM) are transferred into the assay plate. Plate is incubated 30 minutes at room temperature. Five μl of each donor (anti-cAMP cryptate) and acceptor (cAMP-d2) are added and the plate is incubated another hour at room temperature in the dark and then read using a BMG LABTECH PHERAstar reader (Excitation:337 nm, Emission:620 and 665 nm).
The obtained Delta F(fluorescence) values (665 nm/620 nM) are converted into % cAMP values using the measurements of the cAMP calibrator provided in the kit. For each compound concentration the percentage of cAMP compared to DMSO control value as average±STDEV (each concentration is measured in duplicate) is calculated.
as §4

The target of the next test is T4, PTGER2 (EP2) (Homo sapiens, UniProt P43116).
T4 construct: host or cells: HEK 293 (PathHunter PTGER2 b-arrestin cell line)
T4 sequence (P43116 whole entry): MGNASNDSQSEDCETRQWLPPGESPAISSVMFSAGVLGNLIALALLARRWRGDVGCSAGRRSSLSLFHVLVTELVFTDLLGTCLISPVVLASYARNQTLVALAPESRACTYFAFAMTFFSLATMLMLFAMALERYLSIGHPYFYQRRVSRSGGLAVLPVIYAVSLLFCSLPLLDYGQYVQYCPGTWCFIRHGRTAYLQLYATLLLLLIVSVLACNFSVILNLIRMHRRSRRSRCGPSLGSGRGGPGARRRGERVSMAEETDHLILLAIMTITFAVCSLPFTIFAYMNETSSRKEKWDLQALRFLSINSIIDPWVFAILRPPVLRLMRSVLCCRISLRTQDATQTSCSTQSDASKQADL
The test can be described thus: hEP2 b-arrestin assay (PathHunter HEK 293 PTGER2 b-arrestin cells). To be noted: antagonistic activity, beta-arrestin assay; read-out: hEP2 b-arr IC50. A digest of the protocol: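 Antagonism measured as inhibition of PGE2-driven β-arrestin 2 recruitment (enzyme fragment complementation, luminescence) in engineered HEK293 EP2 cells. Agonist: 5 μM PGE2, ~EC80, 120 min at 37 °C after 15 min compound preincubation; test range 10 μM-2 nM or 1 μM-0.2 nM, duplicates, IC50 fitted.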

T2 sequence (P43116 whole entry): as above
T1 sequence (P35408 whole entry): as the sequence (P35408 whole entry) above

As usually defined, the IC50 is the point on the concentration scale where inhibition reaches its midpoint. Turning to `CCOc1cc(-c2cc(NCCc3c(C#N)sc4c(OC)cccc34)ncn2)sc1C(=O)O` [Example 27, 5-{6-[2-(2-Cyano-7-methoxy-benzo[b]thiophen-3-yl)-ethylamino]-pyrimidin-4-yl}-3-ethoxy-thiophene-2-carboxylic acid], the IC50 at PTGER4 (EP4) is 0.002 µM; at EP2 receptor it was 0.011 µM; against EP4 receptor it was 0.004 µM.

For the compound `Cc1sc2c(C)cc(F)cc2c1CCNc1cc(-c2cc3ccc(C(=O)O)cc3[nH]2)ncn1` [Example 80, 2-{6-[2-(5-Fluoro-2,7-dimethyl-benzo[b]thiophen-3-yl)-ethylamino]-pyrimidin-4-yl}-1H-indole-6-carboxylic acid], the figures for the IC50 at PTGER2 (EP2), against EP2 receptor and against EP4 receptor were 0.013 µM, 0.02 µM and 0.306 µM, respectively.

Consider `Cc1sc2c(C)cc(F)cc2c1CCNc1cc(-c2ccc(-c3cc(O)no3)cc2)ncn1` [Example 81, 5-(4-{6-[2-(5-Fluoro-2,7-dimethyl-benzo[b]thiophen-3-yl)-ethylamino]-pyrimidin-4-yl}-phenyl)-isoxazol-3-ol [tautomeric form: 5-(4-(6-((2-(5-fluoro-2,7-dimethylbenzo[b]thiophen-3-yl)ethyl)amino)pyrimidin-4-yl)phenyl)isoxazol-3(2H)-one]], for which the IC50 stood at 0.202 µM at PTGER4 (EP4), 0.392 µM against EP2 receptor and 0.323 µM on EP4 receptor.

As for `CCCc1cc(-c2cc(NCCc3c(C)sc4c(C)cc(F)cc34)ncn2)cc(F)c1C(=O)O` [Example 93, 2-Fluoro-4-{6-[2-(5-fluoro-2,7-dimethyl-benzo[b]thiophen-3-yl)-ethylamino]-pyrimidin-4-yl}-6-propyl-benzoic acid], the IC50 on PTGER2 (EP2) was found to be 0.036 µM; against EP2 receptor, 0.035 µM; against EP4 receptor it was 0.362 µM.

With `Cc1sc2c(C)cc(F)cc2c1CCNc1cc(-c2ccc(C(=O)O)c(CC(C)C)c2)ncn1` [Example 94, 4-{6-[2-(5-Fluoro-2,7-dimethyl-benzo[b]thiophen-3-yl)-ethylamino]-pyrimidin-4-yl}-2-isobutyl-benzoic acid], the half-inhibitory concentration (IC50) worked out at 0.045 µM at PTGER2 (EP2), 0.092 µM at EP2 receptor and 0.302 µM at EP4 receptor.

In the case of `CCOc1cc(-c2cc(NCCc3c(C)sc4c(C)cc(F)cc34)ncn2)sc1CC(=O)OC` [Example 95, (3-Ethoxy-5-{6-[2-(5-fluoro-2,7-dimethyl-benzo[b]thiophen-3-yl)-ethylamino]-pyrimidin-4-yl}-thiophen-2-yl)-acetic acid methyl ester], the figures for the IC50 at PTGER4 (EP4), at EP2 receptor and at EP4 receptor were 0.484 µM, 0.647 µM and 0.855 µM, respectively.

Consider `CCOc1cc(-c2cc(NCCc3c(C)oc4c(OC)cc(Cl)cc34)ncn2)ccc1CC(=O)O` [Example 106, (4-{6-[2-(5-Chloro-7-methoxy-2-methyl-benzofuran-3-yl)-ethylamino]-pyrimidin-4-yl}-2-ethoxy-phenyl)-acetic acid], for which the IC50 at PTGER4 (EP4) was 0.159 µM; against EP2 receptor, 0.396 µM; at EP4 receptor it was 0.247 µM.

Consider `CCOc1cc(-c2cc(NCCc3c(C)oc4c(Cl)cccc34)ncn2)ccc1CC(=O)O` [Example 108, (4-{6-[2-(7-Chloro-2-methyl-benzofuran-3-yl)-ethylamino]-pyrimidin-4-yl}-2-ethoxy-phenyl)-acetic acid], for which the IC50 at PTGER2 (EP2) worked out at 0.031 µM; at EP2 receptor, 0.107 µM; against EP4 receptor, 0.264 µM.

On to `CCOc1cc(-c2cc(NCCc3c(C)sc4c(C)ccc(Cl)c34)ncn2)ccc1CC(=O)O` [Example 111, (4-{6-[2-(4-Chloro-2,7-dimethyl-benzo[b]thiophen-3-yl)-ethylamino]-pyrimidin-4-yl}-2-ethoxy-phenyl)-acetic acid], for which the IC50 is 0.197 µM on PTGER4 (EP4), 0.561 µM against EP2 receptor and 0.433 µM against EP4 receptor.

For the compound `CCOc1cc(-c2cc(NCCc3c(C)sc4c(Cl)cc(F)cc34)ncn2)ccc1CC(=O)O` [Example 113, (4-{6-[2-(7-Chloro-5-fluoro-2-methyl-benzo[b]thiophen-3-yl)-ethylamino]-pyrimidin-4-yl}-2-ethoxy-phenyl)-acetic acid], the half-inhibitory concentration (IC50) amounted to 0.209 µM at PTGER4 (EP4), 0.284 µM at EP2 receptor and 0.765 µM on EP4 receptor.

Take `CCOc1cc(-c2cc(NCCc3c(C)sc4c(Cl)ccc(Cl)c34)ncn2)ccc1CC(=O)O` [Example 114, (4-{6-[2-(4,7-Dichloro-2-methyl-benzo[b]thiophen-3-yl)-ethylamino]-pyrimidin-4-yl}-2-ethoxy-phenyl)-acetic acid]: the IC50 amounted to 0.246 µM at PTGER4 (EP4), 0.477 µM on EP2 receptor and 0.781 µM against EP4 receptor.

In the case of `CCOc1cc(-c2cc(NCCc3c(C)sc4c(C)cc(F)cc34)ncn2)ccc1NCC(=O)O` [Example 128, (2-Ethoxy-4-{6-[2-(5-fluoro-2,7-dimethyl-benzo[b]thiophen-3-yl)-ethylamino]-pyrimidin-4-yl}-phenylamino)-acetic acid], the IC50 on EP2 receptor was found to be 0.037 µM; against EP4 receptor it was 0.082 µM.

For the compound `CCOc1cc(-c2cc(NCCc3c(C)sc4c(C)cc(F)cc34)ncn2)sc1-c1noc(=O)[nH]1` [Example 159, 3-(3-Ethoxy-5-{6-[2-(5-fluoro-2,7-dimethyl-benzo[b]thiophen-3-yl)-ethylamino]-pyrimidin-4-yl}-thiophen-2-yl)-[1,2,4]oxadiazol-5(4H)-one [tautomeric form: 3-(3-ethoxy-5-(6-((2-(5-fluoro-2,7-dimethylbenzo[b]thiophen-3-yl)ethyl)amino)pyrimidin-4-yl)thiophen-2-yl)-[1,2,4]oxadiazol-5-ol]], the figures for the IC50 on PTGER4 (EP4), at EP2 receptor and at EP4 receptor were 0.003 µM, 0.011 µM and 0.005 µM, respectively.

For the compound “(4-{6-[2-(4,5-Difluoro-7-methoxy-2-methyl-benzofuran-3-yl)-ethylamino]-pyrimidin-4-yl}-2-ethoxy-phenoxy)-acetic acid [Example 123]”, the half-inhibitory concentration (IC50) stood at 0.142 µM at PTGER4 (EP4), 0.359 µM at EP2 receptor and 0.219 µM at EP4 receptor.
